Test system: human adipose stem cells (hASCs)
Experiment: hASC proliferation (cell number) on BCP scaffold, static culture
Type: cell-based
Details: vs non-treated controls
Description: In one embodiment, a method of static culture of hASCs by pre-treatment with vitamin D3 (calcitriol) and attachment of hASCs to the scaffold used in one-step surgical procedure comprises the following steps. At one step, isolating hASCs as explained in FIG. 1. In an embodiment, the hASCs from three donors at passage 3 are used for further processing. As an optional step, the obtained hASCs are either or not incubated for a period of about 30 mins with low concentrated calcitriol of about 10 nM at room temperature. At next step, the calcitriol treated hASCs are washed twice with Phosphate Buffered Saline (PBS) to remove calcitriol. Further, the washed hASCs are centrifuged and resuspended in Dulbecco's Minimum Essential Medium (DMEM) without any supplements. At another step, the resuspended cells are seeded on the scaffold and allowed to attach to the scaffolds for a period of about 30 minutes. At next step, the scaffolds with attached cells are transferred to 12-well plates with Costar® Transwell® containers (Corning Life Sciences, Lowell, Mass., USA) containing expansion medium (DMEM) supplemented with 10% Fetal Clone I (FCI), antibiotics (1% penicillin/streptomycin/fungizone (PSF)), 50 μM ascorbic acid (Merck, Darmstadt, Germany), and 10 mM β-glycerol phosphate (Merck, Darmstadt, Germany) (PLGA/β-TCP). At next step, the hASCs seeded scaffolds are incubated at 5% CO2 in a humidified incubator at predefined temperature of about 37° C. for a period of about 3 weeks. The effect of 30 minutes pre-treatment with calcitriol on hASC proliferation is exemplarily illustrated in FIG. 4C. […] The 30 minutes pre-treatment with calcitriol increases the cell number at day 14 by 3.5-fold, and at day 21 by 2.6-fold. The continuous treatment of hASCs with calcitriol for 3 weeks increases the cell number only at day 14 by 1.7-fold, but not at day 21 compared to non-treated controls as shown in FIG. 4C. The results of hASC proliferation are expressed as CFU (in %) versus time (in days) and represent means±standard errors of the means of the colon forming unit counts (n=3), where p<0.0001.

## C=C1/C(=C\C=C2/CCC[C@]3(C)[C@@H]([C@H](C)CCCC(C)(C)O)CC[C@@H]23)C[C@@H](O)C[C@@H]1O [calcitriol, 1,25-dihydroxyvitamin D3]
30 min pre-treatment, day 14
  cell number, increase: 3.5 fold
30 min pre-treatment, day 21
  cell number, increase: 2.6 fold
Continuous treatment for 3 weeks, day 14
  cell number, increase: 1.7 fold
Continuous treatment for 3 weeks, day 21
  cell number, increase: not at day 21
